Laboratory results reported in PMC12974487, “Inhibition of FicD-mediated AMPylation and deAMPylation by isoprenoid diphosphates” (Proceedings of the National Academy of Sciences of the …, 2026).

Molecular target: T1, FicD^E234G (Homo sapiens, UniProt Q9BVA6, E234G)
T1 construct: soluble ER luminal domain (residues 105 to 458) of wild-type human FicD and three mutants; 6xHis-Sumo (N, cleaved yes); made in house; host or cells: Rosetta(DE3) E. coli
T1 sequence (Q9BVA6 105-458 E234G): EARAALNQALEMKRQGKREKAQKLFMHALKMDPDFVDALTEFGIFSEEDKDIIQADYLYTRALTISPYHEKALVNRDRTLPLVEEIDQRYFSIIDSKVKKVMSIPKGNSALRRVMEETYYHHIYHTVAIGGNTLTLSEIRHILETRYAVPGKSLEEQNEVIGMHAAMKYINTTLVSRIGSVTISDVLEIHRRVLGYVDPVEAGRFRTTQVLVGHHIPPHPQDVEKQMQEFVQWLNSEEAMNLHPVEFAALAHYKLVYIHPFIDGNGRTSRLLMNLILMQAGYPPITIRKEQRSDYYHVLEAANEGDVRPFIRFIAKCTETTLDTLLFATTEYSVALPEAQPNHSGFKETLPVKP
Experiment: Total (intact) mass analysis of FicD^E234G incubated with FPP
Conditions: 50uM FPP, 5mM MgCl2
Text: To reveal the mechanism of FicD inhibition by FPP, we leveraged the FicD^E234G mutant for structural studies. We soaked FPP into crystals of the FicD^E234G variant and solved the ligand-bound structure (Fig. 5 A and B). […] The diphosphate group of FPP closely overlapped with the ADP diphosphate when superimposed with a FicD^E234G-ADP structure (Fig. 5 A, Left), and the hydrophobic isoprenyl groups of FPP overlap with the nucleoside in the active site binding pocket (Fig. 5 A, Right). The FPP diphosphate binds directly to the side chains of N369, R371, with the sidechain of D367 coordinating the Mg^2+ (Fig. 5B). These interactions mimic those observed between ADP/ATP and FicD ([26]). […] As previously noted, only GPP and FPP could bind to and inhibit FicD, but analogs of the isoprenoid-pyrophosphate metabolites (geraniol, GMP, farnesol, FMP, DMAPP, and MVAPP) could not (Fig. 2 B–D). Together, these observations indicate both the pyrophosphate head and the long isoprenoid tail of GPP/FPP contribute to the binding with FicD. […]
Intact mass analysis of proteins was performed by the UT Southwestern Proteomics Core. Intact protein samples were analyzed by LC/MS, using a Sciex X500B QTOF mass spectrometer operating in positive ion mode, coupled to an Agilent 1290 Infinity II HPLC. […]

CC(C)=CCC/C(C)=C/CC/C(C)=C/COP(=O)(O)OP(=O)(O)O [FPP, farnesyl-pyrophosphate]
mass shift associated with putative FPP automodification: no mass shift
